Read-outs that look alike come from different tables or passages of the source.
Columns and labels:
[1] = test system: TLR2 induced IL-6 in peripheral blood mononuclear cells (PBMCs); test: PBMC TLR2 Induced IL-6 Assay; assay type: cell-based, human; settings: IL-6 by ELISA; for EC50: read-out: Cell EC50; for IC50: read-out: Cell IC50
Summary of the method: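 Lipoteichoic acid at 10 µg/ml served as TLR2 stimulus for 5 hours, following a 30-minute compound pretreatment at 37° C. Cells were Ficoll-isolated human PBMCs, 250000 cells/well, cultured in RPMI plus 10% heat-inactivated FCS.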

[2] = target: IRAK4 (Homo sapiens (Human), UniProt Q9NWZ3); test: IRAK4 Inhibition Assay; assay type: biochemical; settings: ATP 500 μM, read-out: IRAK4 IC50
Chain of IRAK4 (Q9NWZ3 whole entry, species assumed): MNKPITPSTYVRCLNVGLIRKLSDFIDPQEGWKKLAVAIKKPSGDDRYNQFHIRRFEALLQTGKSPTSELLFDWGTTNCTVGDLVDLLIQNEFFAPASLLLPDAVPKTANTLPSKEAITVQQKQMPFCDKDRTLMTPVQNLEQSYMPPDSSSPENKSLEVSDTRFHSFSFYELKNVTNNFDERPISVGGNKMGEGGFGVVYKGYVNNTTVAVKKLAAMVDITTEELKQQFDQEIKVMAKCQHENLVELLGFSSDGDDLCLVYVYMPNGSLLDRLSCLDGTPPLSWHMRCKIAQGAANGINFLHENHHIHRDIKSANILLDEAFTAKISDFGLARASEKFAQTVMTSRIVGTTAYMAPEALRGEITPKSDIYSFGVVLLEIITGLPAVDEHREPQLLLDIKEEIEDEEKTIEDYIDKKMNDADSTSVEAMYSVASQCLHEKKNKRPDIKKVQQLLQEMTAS
Summary of the method: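 IRAK4 combined with fluorescent substrate and compounds, reacted 60 min at room temperature, stopped with 35 mM EDTA. Substrate and phosphorylated product separated electrophoretically on a Caliper LabChip 3000 mobility-shift reader.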

[3] = Homo sapiens, PBMC, human PBMCs, lipoteichoic acid stimulated
[4] = Homo sapiens, PBMC, PBMC TLR2 Induced IL-6 Assay, lipoteichoic acid stimulation
[5] = PBMC TLR2 Induced IL-6 Assay, lipoteichoic acid stimulation
[6] = human PBMCs, lipoteichoic acid stimulated

Compound	IC50 ([2]; IRAK4 0.6 nM) [nM]	IC50 ([2]; IRAK4 Inhibition Assay) [nM]	EC50 [1, 4] [nM]	other results
CC(=O)N1CC(Nc2cc(-n3ccc4cc(C#N)cnc43)ncc2C(=O)NC[C@@H](F)C(C)(C)O)C1 [Example 468]	5.8	–	–	EC50 [1, 3]: 128 nM; IC50 [1, 3]: 1010 nM
CC(Nc1cc(-n2ncc3cc(C#N)c(N)nc32)ncc1C(=O)NC[C@@H](F)C(C)(C)O)C(F)(F)F (some centres unmarked) [Example 301]	–	2.4	–	IC50 [1, 4]: 63 nM
CC(C)Nc1cc(-n2ncc3cc(C#N)cnc32)ncc1C(=O)NCCC1CC1 [Example 302]	–	4.1	–	IC50 [1, 4]: 148 nM
CC(C)Nc1cc(-n2ncc3cc(C#N)cnc32)ncc1C(=O)NCC(F)C1CCOCC1 (centres unmarked) [Example 329]	–	4.9	–	IC50 [1, 4]: 76 nM
CC(C)(O)[C@H](F)CNC(=O)c1cnc(-n2ncc3cc(C#N)cnc32)cc1N[C@H]1CC[C@H](O)CC1 [Example 159, 6-(5-cyano-1H-pyrazolo[3,4-b]pyridin-1-yl)-N—((R)-2-fluoro-3-hydroxy-3-methylbutyl)-4-(((trans)-4-hydroxycyclohexyl)amino)nicotinamide]	–	2.4	112	–
CC(C)(O)[C@H](F)CNC(=O)c1cnc(-n2ccc3cc(C#N)cnc32)cc1N[C@H]1C[C@H](C(C)(C)O)C1 [Example 509]	1.6	–	–	IC50 [1, 3]: 128 nM
CC(C)Nc1cc(-n2ccc3cc(C#N)cnc32)ncc1C(=O)NC[C@@H](F)C(C)(C)O [Example 75, (R)-6-(5-cyano-1H-pyrrolo[2,3-b]pyridin-1-yl)-N-(2-fluoro-3-hydroxy-3-methylbutyl)-4-(isopropylamino)nicotinamide]	–	7.6	–	IC50 [1, 4]: 22 nM
COC1CCC(NC(=O)c2cnc(-n3ncc4cc(C#N)cnc43)cc2NC(C)C)CC1 (centres unmarked) [Example 198]	–	3.4	134	–
CNC(=O)[C@H]1CC[C@H](NC(=O)c2cnc(-n3ncc4cc(C#N)cnc43)cc2NC(C)C)CC1 [Example 160, 6-(5-cyano-1H-pyrazolo[3,4-b]pyridin-1-yl)-4-(isopropylamino)-N-((trans)-4-(methylcarbamoyl)cyclohexyl)nicotinamide]	–	5.8	176	–
CNC(=O)[C@H]1CC[C@H](NC(=O)c2cnc(-n3ccc4cc(C#N)cnc43)cc2NC(C)C)CC1 [Example 80, 6-(5-cyano-1H-pyrrolo[2,3-b]pyridin-1-yl)-4-(isopropylamino)-N-((trans)-4-(methylcarbamoyl)cyclohexyl)nicotinamide]	–	1.1	167	IC50 [1, 4]: 79 nM
CC(C)(O)[C@H](F)CNC(=O)c1cnc(-n2ncc3cc(C#N)cnc32)cc1NC1CCC(F)CC1 (stereo partly drawn) [Example 163, (R)-6-(5-cyano-1H-pyrazolo[3,4-b]pyridin-1-yl)-N-(2-fluoro-3-hydroxy-3-methylbutyl)-4-((4-fluorocyclohexyl)amino)nicotinamide]	–	3	81	–
CC(C)Nc1cc(-n2ncc3cc(C#N)c(N)nc32)ncc1C(=O)NCCC(C)(C)F [Example 307]	–	2	–	IC50 [1, 4]: 127 nM
CC(C)(O)[C@H](F)CNC(=O)c1cnc(-n2ncc3cc(C#N)cnc32)cc1NC1CCCOC1 (single isomer, unassigned) [Example 143]	–	6.5	–	EC50 [1, 5]: 185 nM
CC1(Nc2cc(-n3ccc4cc(C#N)cnc43)ncc2C(=O)NC[C@@H](F)C(C)(C)O)CC1 [Example 17, (R)-6-(5-cyano-1H-pyrrolo[2,3-b]pyridin-1-yl)-N-(2-fluoro-3-hydroxy-3-methylbutyl)-4-((1-methylcyclopropyl)amino)nicotinamide]	–	1.2	42	–
CC(=O)N[C@H]1CC[C@H](NC(=O)c2cnc(-n3ccc4cc(C#N)cnc43)cc2NC2CCOCC2)CC1 [Example 88, N-((trans)-4-acetamidocyclohexyl)-6-(5-cyano-1H-pyrrolo[2,3-b]pyridin-1-yl)-4-((tetrahydro-2H-pyran-4-yl)amino)nicotinamide]	–	7.1	345	–
CC(C)Nc1cc(-n2ncc3cc(C#N)cnc32)ncc1C(=O)N[C@H]1CC[C@H](C(C)(C)O)CC1 [Example 148, 6-(5-cyano-1H-pyrazolo[3,4-b]pyridin-1-yl)-N-((trans)-4-(2-hydroxypropan-2-yl)cyclohexyl)-4-(isopropylamino)nicotinamide]	–	1.4	64	–
CCCNC(=O)NCc1cnc2c(ccn2-c2cc(NC(C)C)c(C(=O)NC[C@@H](F)C(C)(C)O)cn2)c1 [Example 513]	5.9	–	–	IC50 [1, 3]: 389 nM
CC(C)(O)[C@H]1CC[C@H](NC(=O)c2cnc(-n3ccc4cc(C#N)cnc43)cc2NC2CC2)CC1 [Example 429]	1.5	–	–	EC50 [1, 3]: 92 nM
CC(C)Nc1cc(-n2ncc3cc(C#N)cnc32)ncc1C(=O)Nc1cnn(CC(C)(C)O)c1 [Example 304]	–	10.7	–	IC50 [1, 4]: 408 nM
CC(C)Nc1cc(-n2ncc3cc(C#N)cnc32)ncc1C(=O)NCCC1(O)CCOCC1 [Example 235]	–	6.1	184	–

Compound	IC50 ([2]; IRAK4 0.6 nM) [nM]	IC50 ([2]; IRAK4 Inhibition Assay) [nM]	EC50 [1, 4] [nM]	other results
CC(C)(O)[C@H](F)CNC(=O)c1cnc(-n2ccc3cc(C#N)cnc32)cc1N[C@@H]1COC[C@H]1O [Example 456]	4.8	–	–	EC50 [1, 6]: 241 nM
CC(C)(O)[C@H](F)CNC(=O)c1cnc(-n2ncc3cc(C(N)=O)cnc32)cc1Nc1ccc2ncoc2c1 [Example 525]	1.6	–	–	EC50 [1, 3]: 253 nM
COc1ccc(CCNC(=O)c2cnc(-n3ncc4cc(C#N)cnc43)cc2NC(C)C)cc1 [Example 261]	–	3.4	–	IC50 [1, 4]: 154 nM
CC(C)(O)[C@H](F)CNC(=O)c1cnc(-n2ccc3cc(C#N)cnc32)cc1NC1CCN(c2ccccc2)CC1 [Example 464]	3.1	–	–	EC50 [1, 3]: 257 nM
CC(C)(O)[C@H](F)CNC(=O)c1cnc(-n2cnc3cc(Cl)cnc32)cc1NC1COC1 [Example 340]	–	10	536	–
CC(C)(O)[C@H](F)CNC(=O)c1cnc(-n2ccc3cc(C#N)cnc32)cc1N[C@@H]1CCN(c2ncc(F)cn2)C1 [Example 449]	1.5	–	–	EC50 [1, 3]: 82 nM; IC50 [1, 3]: 59 nM
CC(C)Nc1cc(-n2ccc3cc(CNC(=O)CC(C)(C)C)cnc32)ncc1C(=O)NC[C@@H](F)C(C)(C)O [Example 519]	2.7	–	–	IC50 [1, 3]: 126 nM
CC(C)(O)[C@H](F)CNC(=O)c1cnc(-n2cnc3cc(C#N)cnc32)cc1Nc1cnn(C(F)F)c1 [Example 401]	5.7	–	–	IC50 [1, 3]: 485 nM
CC(C)Nc1cc(-n2ncc3cc(C#N)cnc32)ncc1C(=O)Nc1ccc(C(C)(C)O)cn1 [Example 236]	–	11.6	323	–
CC(C)(O)[C@H](F)CNC(=O)c1cnc(-n2ccc3cc(C#N)cnc32)cc1NCC1(O)CCC1 [Example 28, (R)-6-(5-cyano-1H-pyrrolo[2,3-b]pyridin-1-yl)-N-(2-fluoro-3-hydroxy-3-methylbutyl)-4-(((1-hydroxycyclobutyl)methyl)amino)nicotinamide]	–	2.8	80	–
CC(CCF)Nc1cc(-n2ccc3cc(C#N)cnc32)ncc1C(=O)NC[C@@H](F)C(C)(C)O (single isomer, unassigned) [Example 427]	2.8	–	–	EC50 [1, 6]: 89 nM
CC(C)Nc1cc(-n2ncc3cc(C#N)cnc32)ncc1C(=O)NCC(F)C1(O)COC1 (centres unmarked) [Example 243]	–	5.3	298	IC50 [1, 5]: 1990 nM
CCCCNC(=O)c1cnc(-n2ncc3cc(C#N)c(N)nc32)cc1NC1COC1 [Example 559]	5.3	–	–	IC50 [1, 3]: 18 nM
CC(C)Nc1cc(-n2ccc3cc(C#N)cnc32)ncc1C(=O)N[C@H]1CC[C@](O)(c2nccs2)CC1 [Example 175, 6-(5-cyano-1H-pyrrolo[2,3-b]pyridin-1-yl)-N-((1s,4s)-4-hydroxy-4-(thiazol-2-yl)cyclohexyl)-4-(isopropylamino)nicotinamide]	–	5	113	–
CC(C)Nc1cc(-n2ncc3cc(C#N)cnc32)ncc1C(=O)NC[C@H](F)C(C)(C)O [Example 196]	–	10.4	304	IC50 [1, 4]: 328 nM
CC(C)(O)[C@H](F)CNC(=O)c1cnc(-n2ccc3cc(C#N)cnc32)cc1Nc1cccc(NS(C)(=O)=O)c1 [Example 57, (R)-6-(5-cyano-1H-pyrrolo[2,3-b]pyridin-1-yl)-N-(2-fluoro-3-hydroxy-3-methylbutyl)-4-((3-(methylsulfonamido)phenyl)amino) nicotinamide]	–	1.5	173	–
CC(C)(O)[C@H](F)CNC(=O)c1cnc(-n2ccc3cc(C#N)cnc32)cc1Nc1ccc(C(N)=O)cc1 [Example 60, (R)-4-((4-carbamoylphenyl)amino)-6-(5-cyano-1H-pyrrolo[2,3-b]pyridin-1-yl)-N-(2-fluoro-3-hydroxy-3-methylbutyl)nicotinamide]	–	1.8	24	–
CC(C)Nc1cc(-n2ncc3cc(C#N)cnc32)ncc1C(=O)NC[C@@H](F)C(=O)N1CCOCC1 [Example 256]	–	14.7	–	IC50 [1, 4]: 148 nM
CC(C)Nc1cc(-n2ccc3cc(C#N)cnc32)ncc1C(=O)N[C@H]1CC[C@H](C(C)(C)O)CC1 [Example 96, 6-(5-cyano-1H-pyrrolo[2,3-b]pyridin-1-yl)-N-((trans)-4-(2-hydroxypropan-2-yl)cyclohexyl)-4-(isopropylamino)nicotinamide]	–	1.4	38	–

From US9169252B2 (BRISTOL-MYERS SQUIBB COMPANY, priority 2014, dated 2015)
